BindingDB's records for doi:10.1021/jm00089a012 (Merck Sharp and Dohme Research Laboratories, 1992)

Experiment: In vitro for the binding affinity against sigma receptor by using [3H]DTG as radioligand in guinea pig cerebellum

Row | SMILES | IC50 [nM]
1 | CCCN1CCC2=C(CCc3ccccc32)C1 | 21
2 | CCCCN1CCC2c3ccccc3CCCC2C1 (centres undefined) | 2.1
3 | c1coc(CN2CC[C@H]3c4ccccc4CC[C@H]3C2)c1 | 6.6
4 | Clc1ccc(CN2CC[C@H]3c4ccccc4CC[C@H]3C2)cc1 | 4.7
5 | CCCCN1CCC2=C(Cc3ccccc32)C1 | 1.9
6 | c1ccc(CCCN2CC[C@H]3c4ccccc4CC[C@H]3C2)cc1 | 4.3
7 | c1ccc2c(c1)CC[C@H]1CN(C34C[C@H]5C[C@@H](C3)C[C@@H](C4)C5)CC[C@@H]21 | 2.3
8 | c1ccc2c(c1)CC[C@H]1CN(C3CCCCC3)CC[C@@H]21 | 0.251
9 | c1ccc(CCN2CC[C@H]3c4ccccc4CC[C@H]3C2)cc1 | 0.324
10 | c1csc(CN2CC[C@H]3c4ccccc4CC[C@H]3C2)c1 | 7.1
11 | c1ccc(CN2CC[C@H]3c4ccccc4CC[C@H]3C2)nc1 | 17
12 | c1ccc2c(c1)CC[C@H]1CN(CC3CC3)CC[C@@H]21 | 2.5
13 | CCCCN1CC[C@H]2c3cc(C)cc(C)c3CC[C@H]2C1 | 2
14 | c1ccc2c(c1)CC[C@H]1CN(Cc3ccc4ccccc4c3)CC[C@@H]21 | 81
15 | CCCCN1CC[C@@H]2c3ccccc3CC[C@H]2C1 | 3.1
16 | C=CCN1CC[C@H]2c3ccccc3CC[C@H]2C1 | 4.6
17 | CCCCN1CCC2c3ccccc3CC2C1 (centres undefined) | 11
18 | CCCN1CC[C@H]2c3ccccc3CC[C@H]2C1 | 2.6
19 | CN1CC[C@@H]2c3ccccc3CC[C@H]2C1 | 447
20 | CCCCN1CC[C@H]2c3ccccc3CC[C@H]2C1 | 6.3
21 | O=[N+]([O-])c1ccc(CN2CC[C@H]3c4ccccc4CC[C@H]3C2)cc1 | 8.7
22 | COc1ccc(CN2CC[C@H]3c4ccccc4CC[C@H]3C2)cc1 | 2
23 | CN1CC[C@H]2c3ccccc3CC[C@H]2C1 | 339
24 | c1ccc2c(c1)CC[C@H]1CN(C3[C@H]4C[C@@H]5C[C@@H](C[C@H]3C5)C4)CC[C@@H]21 (some centres undefined) | 2.2
